Results published in patent US20090270361A1, “Substituted pyrazole derivatives and use thereof” (Takeda Pharmaceutical Company Limited, priority 2008, published 2009).
Where a chain is given by its changes, count along the chain named. Where two headings read alike, the source gives them in different places. Each block holds one molecule with its values, some of them ahead of it.

Tests used:
[1] = biological target: T1, LNCaP type mutant androgen receptor (AR) (Homo sapiens, UniProt P10275, T878A); test: AR-binding inhibition test (LNCaP type), radio-labeled Mibolerone displacement; conditions: read-out: inhibition rate, LNCaP type
T1 sequence (P10275 1-920 T878A): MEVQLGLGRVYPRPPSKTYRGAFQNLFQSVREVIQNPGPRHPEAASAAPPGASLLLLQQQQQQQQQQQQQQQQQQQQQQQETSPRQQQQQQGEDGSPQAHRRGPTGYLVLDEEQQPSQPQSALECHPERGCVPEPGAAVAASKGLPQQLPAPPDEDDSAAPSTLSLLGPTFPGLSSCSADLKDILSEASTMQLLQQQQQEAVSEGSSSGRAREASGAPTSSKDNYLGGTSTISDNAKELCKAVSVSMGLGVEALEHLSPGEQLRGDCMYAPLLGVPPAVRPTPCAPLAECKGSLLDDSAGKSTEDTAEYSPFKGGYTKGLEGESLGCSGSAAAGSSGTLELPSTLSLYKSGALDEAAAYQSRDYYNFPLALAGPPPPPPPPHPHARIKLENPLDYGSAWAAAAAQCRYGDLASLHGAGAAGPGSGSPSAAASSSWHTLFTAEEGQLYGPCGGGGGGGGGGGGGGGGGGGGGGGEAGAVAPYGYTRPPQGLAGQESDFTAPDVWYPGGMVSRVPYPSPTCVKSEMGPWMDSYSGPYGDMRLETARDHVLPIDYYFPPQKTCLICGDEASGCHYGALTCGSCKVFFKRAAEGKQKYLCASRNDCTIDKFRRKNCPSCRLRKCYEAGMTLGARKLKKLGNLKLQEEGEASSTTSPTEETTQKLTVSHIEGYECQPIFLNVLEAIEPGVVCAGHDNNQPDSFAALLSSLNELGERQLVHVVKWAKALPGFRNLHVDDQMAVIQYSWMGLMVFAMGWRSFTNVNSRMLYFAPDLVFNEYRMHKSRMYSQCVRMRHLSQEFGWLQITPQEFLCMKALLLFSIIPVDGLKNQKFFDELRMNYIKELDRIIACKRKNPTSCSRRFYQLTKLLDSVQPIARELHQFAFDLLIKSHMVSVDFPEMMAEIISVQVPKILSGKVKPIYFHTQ
Procedure: (§1) AR-Binding Inhibition Test (Wild Type and LNCaP Type)
(§2) To a solution of wild type or LNCaP type mutant androgen receptor (AR) was added 3 nM radio-labeled Mibolerone and final concentration 1 μM of the compound. The mixture was incubated at 4° C. for 3 hours, and B (Bound) and F (Free) Mibolerones were separated by the dextran/charcoal method. The label count of B was measured and the inhibition rate of the compound was calculated.

[2] = system: Human prostate cancer cells LNCaP-FGC; test: Prostate specific antigen (PSA) production inhibition test in prostate cancer cells; assay type: cell-based; conditions: for inhibition at 1 µM: Homo sapiens, 72 h, read-out: PSA production inhibitory rate (%)
[3] = biological target: T2, wild type androgen receptor (AR) (Homo sapiens, UniProt P10275); test: AR-binding inhibition test (wild type), radio-labeled Mibolerone displacement; conditions: read-out: inhibition rate, wild type
T2 sequence (P10275 1-920): T1 sequence (P10275 1-920 T878A) with A878T
Procedure: as §1, §2

mutant AR (W741C) = biological target: T3, mutant AR (W741C) (Homo sapiens, UniProt P10275, W742C); test: AR transcription inhibition test (luciferase reporter in Cos-7 cells); assay type: cell-based; conditions: compound 1 μM; DHT 0.1 μM; Cos-7 cells cotransfected with mutant AR (W741C) and androgen responsive luciferase reporter; 24 hr; relative to control (0.1 μM DHT); read-out: AR transcription inhibitory rate (%)
T3 construct: expressed in transfected cells; host or cells: Cos-7
T3 sequence (P10275 1-920 W742C): T1 sequence (P10275 1-920 T878A) with W742C, A878T
Procedure: AR Transcription Inhibition Test
Cos-7 cells (5,000,000 cells) were inoculated to a flask, and incubated in a culture medium (DMEM +10% Dextran Charcoal (DCC)-Fetal Bovine Serum (FBS) and 2 mM glutamine) for 24 hours. Then, a vector DNA harboring mutant AR (W741C) and a vector DNA containing a luciferase gene bound at the downstream of an androgen responsive promoter were cotransfected by a liposome method. After 4 hr, the medium was changed and, after culture for 3 hr, DHT (dihydrotestosterone) at the final concentration of 0.1 μM and the compound at the final concentration of 1 μM were added. After further culture for 24 hr, the luciferase activity was measured, and the AR transcription inhibitory activity of the compound was examined.

[4] = compound final concentration 1 μM, 3 nM radio-labeled Mibolerone, 4° C., 3 hours, dextran/charcoal method

SMILES: Cc1nn(-c2ccc(C#N)c(Cl)c2)c(C)c1Cc1ccc(C(=O)NCC(O)CO)cc1 (racemic) [Example 321, (±)-4-{[1-(3-chloro-4-cyanophenyl)-3,5-dimethyl-1H-pyrazol-4-yl]methyl}-N-(2,3-dihydroxypropyl)benzamide]
inhibition at 1 µM [1]: 84%
inhibition at 1 µM [2]: 91%
inhibition at 1 µM [3]: 78%
inhibition at 1 µM (mutant AR (W741C)): 38%

SMILES: Cc1nn(-c2ccc(C#N)c(Cl)c2)c(C)c1Cc1ccc(C(=O)N(C)CCO)cc1 [Example 296, 4-{[1-(3-chloro-4-cyanophenyl)-3,5-dimethyl-1H-pyrazol-4-yl]methyl}-N-(2-hydroxyethyl)-N-methylbenzamide]
inhibition at 1 µM [1]: 64%
inhibition at 1 µM [2]: 79%
inhibition at 1 µM [3]: 52%
inhibition at 1 µM (mutant AR (W741C)): 39%

SMILES: Cc1nn(-c2ccc(C#N)c(Cl)c2)c(C)c1Cc1ccc(C(=O)N2CC[C@H](O)C2)cc1 [Example 332, 2-chloro-4-[4-(4-{[(3S)-3-hydroxypyrrolidin-1-yl]carbonyl}benzyl)-3,5-dimethyl-1H-pyrazol-1-yl]benzonitrile]
inhibition at 1 µM [1]: 78%
inhibition at 1 µM [2]: 84%
inhibition at 1 µM [3]: 72%
inhibition at 1 µM (mutant AR (W741C)): 22%

SMILES: Cc1nn(-c2ccc(C#N)c(Cl)c2)c(C)c1Cc1ccc(-c2nnc(C(N)=O)o2)cc1 [Example 350, 5-(4-{[1-(3-chloro-4-cyanophenyl)-3,5-dimethyl-1H-pyrazol-4-yl]methyl}phenyl)-1,3,4-oxadiazole-2-carboxamide]
inhibition at 1 µM [1]: 92%
inhibition at 1 µM [2]: 101%
inhibition at 1 µM [3]: 87%
inhibition at 1 µM (mutant AR (W741C)): 93%

SMILES: Cc1nn(-c2ccc(C#N)c(Cl)c2)c(C)c1Cc1ccc(C(=O)NC(C)(C)C)cc1 [Example 351, N-tert-butyl-4-{[1-(3-chloro-4-cyanophenyl)-3,5-dimethyl-1H-pyrazol-4-yl]methyl}benzamide]
inhibition at 1 µM [2]: 109%

SMILES: Cc1nn(-c2ccc(C#N)c(Cl)c2)c(C)c1Cc1ccc(C(=O)N2CCC(O)CC2)cc1 [Example 355, 2-chloro-4-(4-{4-[(4-hydroxypiperidin-1-yl)carbonyl]benzyl}-3,5-dimethyl-1H-pyrazol-1-yl)benzonitrile]
inhibition at 1 µM [1]: 51%
inhibition at 1 µM [2]: 117%
inhibition at 1 µM [3]: 47%
inhibition at 1 µM (mutant AR (W741C)): 23%

SMILES: Cc1nn(-c2ccc(C#N)c(Cl)c2)c(C)c1Cc1ccc(C(=O)NCC(C)(C)O)cc1 [Example 356, 4-{[1-(3-chloro-4-cyanophenyl)-3,5-dimethyl-1H-pyrazol-4-yl]methyl}-N-(2-hydroxy-2-methylpropyl)benzamide]
inhibition at 1 µM [2]: 98%

SMILES: Cc1nn(-c2ccc(C#N)c(Cl)c2)c(C)c1Oc1ccc(C(=O)N2CCOCC2)cc1 [Example 357, 2-chloro-4-{3,5-dimethyl-4-[4-(morpholin-4-ylcarbonyl)phenoxy]-1H-pyrazol-1-yl}benzonitrile]
inhibition at 1 µM [2]: 100%

SMILES: Cc1nn(-c2ccc(C#N)c(Cl)c2)c(C)c1Cc1ccc(C(=O)N2CC(O)C2)cc1 [Example 363, 2-chloro-4-(4-{4-[(3-hydroxyazetidin-1-yl)carbonyl]benzyl}-3,5-dimethyl-1H-pyrazol-1-yl)benzonitrile]
inhibition at 1 µM [1]: 79%
inhibition at 1 µM [2]: 100%
inhibition at 1 µM [3]: 73%
inhibition at 1 µM (mutant AR (W741C)): 23%

inhibition at 1 µM [1, 4]: 77%
inhibition at 1 µM [3, 4]: 49%
inhibition at 1 µM (mutant AR (W741C)): 24%
SMILES: Cc1nn(-c2ccc(C#N)c(Cl)c2)c(C)c1Oc1ccc(C(=O)N2CCS(=O)(=O)CC2)cc1 [Example 367, 2-chloro-4-(4-{4-[(1,1-dioxidethiomorpholin-4-yl)carbonyl]phenoxy}-3,5-dimethyl-1H-pyrazol-1-yl)benzonitrile]
inhibition at 1 µM ([2]; compound 1 μM, testosterone final concentration 0.1 ng/m, PSA in culture supernatant after 3 days by ELISA, testosterone non-addition group = 100%, testosterone addition group = 0%): 109%

SMILES: Cc1nn(-c2ccc(C#N)c(Cl)c2)c(C)c1Oc1ccc(NC(=O)C(C)(C)C)cn1 [Example 455, N-(6-{[1-(3-chloro-4-cyanophenyl)-3,5-dimethyl-1H-pyrazol-4-yl]oxy}pyridin-3-yl)-2,2-dimethylpropanamide]
inhibition at 1 µM [2]: 108%

SMILES: CC(O)(CS(=O)(=O)c1ccc(F)cc1)C(=O)Nc1ccc(C#N)c(C(F)(F)F)c1 (stereo not drawn) [bicartamide, reference compound]
PSA production inhibitory rate (%) ([2]; 1 µM): 75%
